Measured values from paper doi:10.1101/2024.03.25.586180v1 (biorxiv, 2024).

Biological target: T1, BT2 (Bacteroides thetaiotaomicron, UniProt Q8A5T1)
T1 sequence (Q8A5T1 20-290): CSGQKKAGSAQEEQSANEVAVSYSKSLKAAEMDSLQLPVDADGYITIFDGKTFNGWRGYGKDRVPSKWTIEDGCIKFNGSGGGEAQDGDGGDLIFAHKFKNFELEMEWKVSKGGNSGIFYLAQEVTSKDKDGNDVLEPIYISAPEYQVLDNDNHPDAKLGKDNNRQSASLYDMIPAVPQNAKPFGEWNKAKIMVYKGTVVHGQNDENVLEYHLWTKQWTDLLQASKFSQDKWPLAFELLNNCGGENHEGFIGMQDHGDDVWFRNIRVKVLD
Experiment: 1H-NMR, elimination
Format: biochemical
Conditions: elimination to 3-keto-2-hydroxy-glucal

Compound: CO[C@H]1O[C@H](CO)[C@@H](O)C(=O)[C@H]1O [3-keto methyl α-glucoside]
- 1H-NMR, elimination: while AL/BT2 do so on the α anomer
